Our source for the IC50 and Activity values is ChEMBL document CHEMBL3826902, “Synthesis and cytotoxic activities of semisynthetic zearalenone analogues” (Bioorg Med Chem Lett, 2016).

The IC50 is the concentration at which inhibition is half-maximal.

The nature of series [1]: Cytotoxicity against human HL60 cells assessed as reduction in cell viability after 24 hrs by MTT assay. In kind it is functional, cell-based. As to conditions: HL-60, 24 h. A general note: Formazan colour is commonly taken as a measure of viable cells.
The test system of series [2] is Vero. The series is described as follows: Cytotoxicity against African green monkey Vero cells assessed as reduction in cell viability by green fluorescent protein-based assay. Set-up: species or system Chlorocebus sabaeus.
In series [3] the test system is MCF7. The series is described as follows: Cytotoxicity against human MCF7 cells assessed as reduction in cell viability by resazurin microplate assay. Format: functional, cell-based.
In series [4] the test system is KB. Description: Cytotoxicity against human KB cells assessed as reduction in cell viability by resazurin microplate assay. In kind it is functional, cell-based. In general terms: Alamar Blue is a resazurin reagent that responds to reducing activity.
Series [5] deals with Vero. The series is described as follows: Cytotoxicity against African green monkey Vero cells assessed as reduction in cell viability at >50 ug/ml by green fluorescent protein-based assay. As to conditions: Chlorocebus sabaeus.
The test system of series [6] is KB. Description: Cytotoxicity against human KB cells assessed as reduction in cell viability at >50 ug/ml by resazurin microplate assay. In kind it is functional, cell-based.
Series [7] has as its system MCF7. The series is described as follows: Cytotoxicity against human MCF7 cells assessed as reduction in cell viability at >50 ug/ml by resazurin microplate assay. In kind it is functional, cell-based.

Active and inactive are the calls of the source. The calls are words filed in the database; no cut-off is given here.

With `C[C@H]1CCCC(=O)CCC/C=C/c2cc(O)cc(O)c2C(=O)O1` [ZEARALENONE], the IC50 in series [1] came out at 138 µM; with Vero [2] (Chlorocebus sabaeus, Vero, read-out: IC50), 40.6 µM; in the series with MCF7 [3] (Homo sapiens, MCF7, read-out: IC50), 105 µM; in the series on KB [4] (Homo sapiens, KB, read-out: IC50), 46.3 µM.

Regarding `COc1cc(O)c2c(c1)CCCCC[C@@H](O)CCC[C@H](C)OC2=O`, the Activity entry in the series on Vero [5] is listed as “Non-toxic”. For the same compound, the IC50 result in the series with Vero [2] (vero), in the series with MCF7 [3] (mcf7) and in the series with KB [4] (kb) was “Not Active” throughout. The outcome in the series on KB [6] and in the series with MCF7 [7] was inactive.
